From ChEMBL document CHEMBL6127139, “Lysine-Targeted Covalent Inhibitors of PI3Kδ Synthesis and Screening by In Situ Interaction Upgradation” (J Med Chem, 2024)
The source made the active and inactive calls. The rule behind the calls is not given here.

Columns and labels:
SU-DHL-6 [1] = assay: Induction of apoptosis in human SU-DHL-6 cells assessed as early apoptotic cells at 0.1 uM incubated for 48 hrs by Annexin V-FITC/PI staining based flow cytometric analysis (reference value: 5.02 %); format: functional
[2] = Selectivity index, ratio of IC50 for inhibition of recombinant PI3Kgamma (unknown origin) using PIP2:3PS as substrate to IC50 for inhibition of recombinant PI3Kdelta (unknown origin) using PIP2:3PS as substrate
[3] = biological target: T1, Phosphatidylinositol 4,5-bisphosphate 3-kinase catalytic subunit delta isoform (Homo sapiens, UniProt O00329); assay: Covalent inhibition of PI3Kdelta (unknown origin) using PIP2:3PS as substrate assessed as inhibition constant incubated upto 180 mins in presence of ATP by ADP-Glo reagent based assay
T1 sequence (O00329 whole entry): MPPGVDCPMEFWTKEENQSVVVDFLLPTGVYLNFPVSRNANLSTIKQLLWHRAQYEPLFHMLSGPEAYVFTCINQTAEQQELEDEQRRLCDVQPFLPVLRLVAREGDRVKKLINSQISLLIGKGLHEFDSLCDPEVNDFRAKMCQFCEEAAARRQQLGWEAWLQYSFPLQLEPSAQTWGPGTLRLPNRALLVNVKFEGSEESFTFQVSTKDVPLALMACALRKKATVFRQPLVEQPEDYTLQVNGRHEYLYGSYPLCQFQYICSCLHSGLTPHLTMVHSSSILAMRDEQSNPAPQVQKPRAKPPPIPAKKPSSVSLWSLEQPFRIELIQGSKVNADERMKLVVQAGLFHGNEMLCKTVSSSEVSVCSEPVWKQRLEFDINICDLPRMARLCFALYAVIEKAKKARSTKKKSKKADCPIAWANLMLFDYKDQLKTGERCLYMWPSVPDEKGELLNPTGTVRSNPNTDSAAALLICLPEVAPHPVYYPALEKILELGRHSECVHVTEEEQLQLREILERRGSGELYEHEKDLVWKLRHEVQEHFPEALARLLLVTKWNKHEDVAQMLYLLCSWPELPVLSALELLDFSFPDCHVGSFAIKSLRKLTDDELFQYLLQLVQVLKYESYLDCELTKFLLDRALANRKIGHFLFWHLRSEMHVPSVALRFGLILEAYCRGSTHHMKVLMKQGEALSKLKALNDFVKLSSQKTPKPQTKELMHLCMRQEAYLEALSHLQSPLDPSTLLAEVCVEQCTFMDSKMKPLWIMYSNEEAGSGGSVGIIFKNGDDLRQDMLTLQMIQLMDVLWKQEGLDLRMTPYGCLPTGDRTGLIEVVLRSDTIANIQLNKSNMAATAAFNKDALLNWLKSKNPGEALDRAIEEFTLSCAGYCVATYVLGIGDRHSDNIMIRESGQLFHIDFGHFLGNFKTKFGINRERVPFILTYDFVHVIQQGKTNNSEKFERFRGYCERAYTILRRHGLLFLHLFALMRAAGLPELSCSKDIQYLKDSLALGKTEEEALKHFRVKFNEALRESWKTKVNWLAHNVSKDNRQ

SU-DHL-6 [4] = assay: Irreversible inhibition of AKT phosphorylation in human SU-DHL-6 cells preincubated for 12 hrs followed by compound washout and measured after 24 hrs by Western blot analysis; format: cell-based
MCF7 = assay: Growth inhibition of human MCF7 cells incubated for 72 hrs by MTT assay; format: functional
[5] = Growth inhibition of PI3Kdelta-overexpressing human SU-DHL-6 cells incubated for 72 hrs by MTT assay; format: functional
[6] = biological target: T2, Phosphatidylinositol 4,5-bisphosphate 3-kinase catalytic subunit delta isoform (Homo sapiens) (UniProt O00329); assay: Covalent inhibition of PI3Kdelta (unknown origin) using PIP2:3PS as substrate assessed as rate constant for irreversible inactivation (Kinact) incubated upto 180 mins in presence of ATP by ADP-Glo reagent based assay
T2 sequence (whole entry): T1 sequence (O00329 whole entry)

SU-DHL-6 [7] = assay: Induction of apoptosis in human SU-DHL-6 cells assessed as viable cells at 1 uM incubated for 48 hrs by Annexin V-FITC/PI staining based flow cytometric analysis (reference value: 89.81 %); format: functional; details: read-out: Activity
[8] = Toxicity in male nude mouse xenografted with human SU-DHL-6 cells assessed as change in body weight at 5 to 30 mg/kg/day, po administered for 14 days; format: organism-based; details: in vivo, 336 h, dose 5-30 mg/kg/day, time 14 day
Raji = assay: Growth inhibition of human Raji cells incubated for 72 hrs by MTT assay; format: functional
[9] = Toxicity in male nude mouse xenografted with human Pfeiffer cells assessed as change in body weight at 5 to 30 mg/kg/day, po administered for 14 days; format: organism-based; details: in vivo, 336 h, dose 5-30 mg/kg/day, time 14 day
SU-DHL-6 [10] = assay: Antitumor activity against human SU-DHL-6 cells xenografted in male nude mouse assessed as tumor growth inhibition at 5 mg/kg/day, po administered for 14 days relative to control; format: functional; details: SU-DHL-6, 336 h, time 14 day, read-out: TGI
SU-DHL-6 [11] = assay: Induction of apoptosis in human SU-DHL-6 cells assessed as late apoptotic cells at 0.1 uM incubated for 48 hrs by Annexin V-FITC/PI staining based flow cytometric analysis (reference value: 4.12 %); format: functional
Pfeiffer [12] = assay: Antitumor activity against human Pfeiffer cells xenografted in male nude mouse assessed as tumor growth inhibition at 30 mg/kg/day, po administered for 14 days relative to control; format: functional; details: 336 h, time 14 day, read-out: TGI
[13] = biological target: T2, Phosphatidylinositol 4,5-bisphosphate 3-kinase catalytic subunit delta isoform (Homo sapiens); assay: Induction of thermal stabilization of PI3Kdelta in human SU-DHL-6 cells at 1 uM preincubated for 30 mins followed by incubated under 40 to 75 degreeC for 3 mins by CETSA; format: cell-based; details: time 33.0 min
[14] = Selectivity index, ratio of IC50 for inhibition of recombinant PI3Kbeta (unknown origin) using PIP2:3PS as substrate to IC50 for inhibition of recombinant PI3Kdelta (unknown origin) using PIP2:3PS as substrate
SU-DHL-6 [15] = assay: Induction of apoptosis in human SU-DHL-6 cells assessed as viable cells at 0.1 uM incubated for 48 hrs by Annexin V-FITC/PI staining based flow cytometric analysis (reference value: 89.81 %); format: functional; details: read-out: Activity
SU-DHL-6 [16] = assay: Antiproliferative activity against human SU-DHL-6 cells assessed as inhibition of cell viability preincubated for 12 hrs followed by compound washout and measured after 60 hrs by MTT assay; format: functional, cell-based
[17] = biological target: Phosphatidylinositol 4,5-bisphosphate 3-kinase catalytic subunit gamma isoform (Homo sapiens, UniProt P48736); assay: Inhibition of recombinant PI3Kgamma (unknown origin) using PIP2:3PS as substrate preincubated for 20 mins followed by ATP addition and measured after 1 hrs by ADP-Glo reagent based assay
Pfeiffer [18] = assay: Antitumor activity against human Pfeiffer cells xenografted in male nude mouse assessed as tumor growth inhibition at 5 mg/kg/day, po administered for 14 days relative to control; format: functional; details: 336 h, time 14 day, read-out: TGI
[19] = Stability of compound in PBS at pH 7.4 incubated for 24 hrs at 37 degreeC by HPLC analysis; format: physicochemical; details: buffer, pH 7.4, 24 h
SU-DHL-6 [20] = assay: Induction of apoptosis in human SU-DHL-6 cells assessed as late apoptotic cells at 1 uM incubated for 48 hrs by Annexin V-FITC/PI staining based flow cytometric analysis (reference value: 4.12 %); format: functional

Phosphatidylinositol 4,5-bisphosphate 3-kinase catalytic subunit gamma isoform, sequence (P48736 whole entry, canonical isoform): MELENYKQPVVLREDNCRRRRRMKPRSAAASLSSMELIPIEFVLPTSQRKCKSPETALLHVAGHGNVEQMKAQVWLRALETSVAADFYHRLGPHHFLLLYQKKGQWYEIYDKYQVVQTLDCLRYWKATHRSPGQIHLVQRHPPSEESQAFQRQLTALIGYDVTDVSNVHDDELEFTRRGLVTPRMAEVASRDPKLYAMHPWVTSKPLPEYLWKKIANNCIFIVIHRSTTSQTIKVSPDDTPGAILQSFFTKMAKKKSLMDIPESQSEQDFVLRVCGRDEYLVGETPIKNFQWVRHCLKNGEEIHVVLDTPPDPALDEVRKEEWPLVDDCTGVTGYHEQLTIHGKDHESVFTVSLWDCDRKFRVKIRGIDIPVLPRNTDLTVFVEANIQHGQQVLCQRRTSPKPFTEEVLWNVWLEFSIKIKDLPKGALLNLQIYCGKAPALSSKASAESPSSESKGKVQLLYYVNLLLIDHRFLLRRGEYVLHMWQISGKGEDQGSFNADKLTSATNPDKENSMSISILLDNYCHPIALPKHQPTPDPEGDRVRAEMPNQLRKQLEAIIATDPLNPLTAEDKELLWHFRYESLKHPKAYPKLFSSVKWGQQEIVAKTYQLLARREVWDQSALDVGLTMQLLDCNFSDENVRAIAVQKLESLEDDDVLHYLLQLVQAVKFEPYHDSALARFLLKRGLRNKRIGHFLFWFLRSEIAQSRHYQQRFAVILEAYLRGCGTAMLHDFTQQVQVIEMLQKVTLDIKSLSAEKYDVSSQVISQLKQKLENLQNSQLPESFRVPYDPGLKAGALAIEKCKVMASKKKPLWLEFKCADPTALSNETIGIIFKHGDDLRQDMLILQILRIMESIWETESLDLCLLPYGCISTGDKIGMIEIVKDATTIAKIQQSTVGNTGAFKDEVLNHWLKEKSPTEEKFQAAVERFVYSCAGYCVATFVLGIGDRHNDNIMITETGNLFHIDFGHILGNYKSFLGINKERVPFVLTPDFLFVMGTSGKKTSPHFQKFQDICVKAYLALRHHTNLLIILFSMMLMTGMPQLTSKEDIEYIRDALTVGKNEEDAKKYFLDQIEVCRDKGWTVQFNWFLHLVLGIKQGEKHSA

Ratio IC50 [2]: 359
Ki [3]: 1.85 nM
GI50 (MCF7): > 10000 nM
Kinact [6]: 0.02 min⁻¹
GI50 (Raji): 5390 nM
Activity [13]: Active
Ratio IC50 [14]: 753
IC50 [17]: 94 nM
Stability [19]: Stable
Structure (SMILES): COc1ncc(-c2ccc3ncnc(N[C@H]4CCN(C(=O)C5CCOCC5)C4)c3n2)cc1C(=O)Oc1ccccc1
Activity (SU-DHL-6 [1]): 17.68%
inhibition (SU-DHL-6 [4]): Active
GI50 [5]: 2 nM
viability at 1 µM (SU-DHL-6 [7]): 14.2%
Activity [8]: Non-Toxic
Activity [9]: Non-Toxic
inhibition in vivo at 5 mg/kg/day (SU-DHL-6 [10]): 84%
Activity (SU-DHL-6 [11]): 15.06%
inhibition in vivo at 30 mg/kg/day (Pfeiffer [12]): 61%
viability at 0.1 µM (SU-DHL-6 [15]): 65.3%
Activity (SU-DHL-6 [16]): Active
inhibition in vivo at 5 mg/kg/day (Pfeiffer [18]): 44%
Activity (SU-DHL-6 [20]): 20.35%
